# Experimental data taken from patent US6610516B1, “Cell culture process” (Genentech, Inc., priority 1999, dated 2003).
# Tests used:
# CHO cells = test: Cell-cycle analysis (propidium iodide flow cytometry) of rht-PA-producing CHO cell cultures; assay type: cell-based, Chinese Hamster; details: T-flasks, 37° C., thymidine 250 μg/mL; for Cells in G0/G1 phase: 3-4 days, added at inoculation: quinidine 90 μM, control 53.91%; for Cells in S phase: control 34.37%
# Excerpt: As used herein, a “cell-cycle inhibitor that blocks cells in the G0/G1 phase of growth” is a molecule that causes cells to accumulate in the G0/G1 phase of growth. This can be determined by cell cycle analysis, i.e., uniform suspensions of nuclei are stained with propidium iodide (PI) using the detergent-trypsin method of Vindelov et al., Cytometry, 3: 323-327 (1983) to determine relative cellular DNA content by flow cytometric analysis. Events are gated using doublet discrimination to exclude doublets, and the data are modeled using ModFit LT Cell Cycle Analysis™ software (Verity Software House).
# (§1) The quantity of cells needed for a 0.2% packed cell volume seed density was centrifuged at approximately 700×g for 10 minutes, and resuspended in 25 cm^2 T-flasks in the appropriate fresh medium for each test case. The T-flasks were set up in triplicate with 5 mL in each flask and incubated for 3 to 4 days at 37° C. and 95% air 5% CO2. Sodium butyrate was added to a concentration of 0.375 mM, 0.75 mM, or 1.5 mM at the time of inoculation for the 25 cm^2 T-flasks. Cells were also cultured in spinner flasks at volumes of 100 ml with similar butyrate concentrations to the T-flask cases. For fermentor experiments, butyrate was added on the second day of the experiments. T-flask cultures were also carried out at 33° C. and 37° C. with no butyrate additions. […] T-PA site-occupancy was analyzed using the method of Example 1.
# (§2) Cells were cultured as for the sodium butyrate experiment described in Example 2. Thymidine was dissolved in water and sterile filtered for a 33-36× stock solution. […] T-PA site-occupancy was analyzed using the method of Example 1.
# [1] = test system: t-PA site occupancy at Asn-184; test: Type I/Type II t-PA assay (RP-HPLC) of supernatant from rht-PA-producing CHO cell cultures; assay type: cell-based, Chinese Hamster; details: for t-PA site occupancy compared to control with no cell-cycle inhibitor: 3-4 days, quinidine 90 μM, thymidine 250 μg/mL at inoculation (FIG. 9); for t-PA site-occupancy, effect of nucleotide sugar precursors: increased availability; for t-PA site-occupancy, effect of nucleotide sugar precursors / Decrease of t-PA site occupancy at 500 µM: days 4-6 (FIG. 12); for Decrease of t-PA site occupancy at 500 µM: Cricetulus griseus, CHO, 0.5 mM each; for t-PA site-occupancy, effect of further butyrate increase: 1.5 mM butyrate; for Increase of t-PA site-occupancy: 1, 10 or 100 nM hormone, day 7 (FIG. 13)
# Experimental: Type I/Type II t-PA assay:
# 1. Thaw cell culture supernatant sample (If whole broth, spin out cells in centrifuge.)
# 2. Add 2 μl freshly thawed plasminogen to 400 μl of sample.
# 3. Incubate at 37° C. for 60 minutes.
# 4. Add 20 μl freshly-thawed 1 M DTT and 400 μl 8 M guanidine-HCl/50 mM TRIS/3.2 mM EDTA solution.
# 5. Incubate at 37° C. for 15 minutes.
# 6. Transfer to vial and load 250 μl for assay on HP 1090™ HPLC using the following conditions:
# ZORBAX™ C8 column at 40° C.;
# Monitoring of eluents by fluorescence (excitation at 275 nm, emission at 340 nm);
# Running each sample with the following 70-minute method where eluent A is 0.1% trifluoroacetic acid (TFA) in water and eluent B is 0.1% TFA in acetonitrile:
# 5 to 35 min.—a linear gradient from 75% A to 60% A
# 45 min. to 70 min.—75% A to re-equilibrate the column
# Type I/Type II fragments elute after approximately 25 minutes, and peak areas are integrated to determine relative quantities.
# Recombinant ht-PA-producing CHO cells were carried in spinner flasks passaged every 3 or 4 days (at a density of 0.1% packed cell volume (PCV)) in selective medium (PS-20 basal medium supplemented with […] methotrexate, 10 mg/L recombinant human insulin (rh-insulin), 0.1 ml/L trace elements, and 0.05 ml/L lipid-ethanol). Sufficient culture was removed to seed 15 ml of medium at 0.2% PCV, and placed in a 50 ml sterile Falcon tube. The culture was centrifuged for 10 minutes at 700-1000 rpm and the supernatant was poured off. Upon addition of 15 ml of fresh selective medium, the culture was agitated gently to resuspend cells. Five ml of culture was placed in three T-25 flasks (25 cm^2 T-flasks). The caps were left loosened to allow equilibration with incubator atmosphere and the flasks were placed in a 33° C. or 31° C. incubator with 5% carbon dioxide. After 5 to 8 days of incubation, the cells were counted using a hemacytometer and/or by checking packed cell volume, and viability was checked using trypan blue. The culture was removed from the flasks, centrifuged for 10 minutes at 2000-2200 rpm, and the supernatant was assayed for rht-PA glycosylation. Alternatively to the T-25 flasks, the cells were cultured using 60-mm cell culture plates in triplicates.
# The mini-fermentor experiments were performed under standard t-PA production conditions in fed-batch mode as noted herein in 5-liter stirred tank bioreactors (Applikon, Foster City, Calif.). The temperature was shifted to 33° C. or 31° C. on day 2 of the production phase.
# as §1, §2
# All experiments were done in 60-mm culture dishes using the procedure described in Example 1 except that a Mn salt, Fe salt, nucleotide sugar precursor, or hormone was added to the growth medium during the growth phase, with Mn or Fe salt or nucleotide sugar precursor added on day 1.
# fibrin = details: in vitro; cited from earlier work
compound,measurement,setting,value
"C=C[C@H]1C[N@@]2CC[C@H]1C[C@@H]2[C@@H](O)c1ccnc2ccc(OC)cc12 [Quinidine, quinidine]",Cells in G0/G1 phase,CHO cells,67.34% at 84.65
same,Cells in G0/G1 phase,CHO cells; listed as quinidine,67%
same,Cells in S phase,CHO cells; quinidine 90 μM,24.11%
same,t-PA site occupancy compared to control with no cell-cycle inhibitor,"[1]; T-flasks, 37° C.",increased site occupancy
"Cc1cn([C@H]2C[C@H](O)[C@@H](CO)O2)c(=O)[nH]c1=O [Thymidine, thymidine]",Cells in G0/G1 phase,CHO cells,32.58% at 84.60
same,Cells in G0/G1 phase,CHO cells; listed as thymidine,33%
same,Cells in G2-M phase,"CHO cells; quinidine 90 μM, control 11.72%",10.09% at 165.36
same,Cells in S phase,CHO cells; quinidine 90 μM,57.33%
same,t-PA site occupancy compared to control with no cell-cycle inhibitor,"[1]; T-flasks, 37° C.",decreased site occupancy
same,"t-PA site-occupancy, effect of nucleotide sugar precursors","[1]; 60-mm dishes, 37° C.",did not improve site-occupancy
NCC(=O)O [glycine],"t-PA site-occupancy, effect of nucleotide sugar precursors","[1]; 60-mm dishes, 37° C.",did not improve site-occupancy
Nc1nc2c(ncn2[C@@H]2O[C@H](CO)[C@@H](O)[C@H]2O)c(=O)[nH]1 [guanosine],Decrease of t-PA site occupancy at 500 µM,"[1]; 60-mm dishes, 37° C.",~2%
O=c1[nH]cnc2nc[nH]c12 [hypoxanthine],"t-PA site-occupancy, effect of nucleotide sugar precursors","[1]; 60-mm dishes, 37° C.",did not improve site-occupancy
"[Cl][Mn][Cl] [manganese, MnCl2]",Increase of t-PA Type I content (site-occupancy) over 3 nM control,"[1]; MnCl2 10 nM-100 μM, 60-mm dishes, 37° C., days 4-6 (FIG. 10)",about 2.5%
CCCC(=O)[O-].[Na+] [sodium butyrate],Increase of Type I content compared to no butyrate,"[1]; 0.75 mM butyrate, 60-mm culture plates (FIG. 6)",about 1%
same,"t-PA site-occupancy, effect of further butyrate increase","[1]; 31° C., 60-mm culture plates (FIG. 6)",increased it
same,"t-PA site-occupancy, effect of further butyrate increase","[1]; 37° C. and 33° C., 60-mm culture plates (FIG. 6)",lowered site-occupancy
same,"t-PA site-occupancy, effect of butyrate","[1]; 0.375 to 1.5 mM at inoculation, T-flasks, 37° C. (FIG. 5)",increased t-PA site-occupancy
same,"Type I content, effect of increasing butyrate from 0.75 to 1.5 mM","[1]; 5-liter bioreactors, days 5-7, 37° C. and 33° C. (FIG. 7)",decreased the Type I content
N[C@@H](Cc1cc(I)c(Oc2cc(I)c(O)c(I)c2)c(I)c1)C(=O)O [thyroxine],Increase of t-PA site-occupancy,"[1]; 60-mm dishes, 37° C.",about 2%
N[C@@H](Cc1cc(I)c(Oc2ccc(O)c(I)c2)c(I)c1)C(=O)O [tri-iodothyronine],Increase of t-PA site-occupancy,"[1]; 60-mm dishes, 37° C.",about 2%
O=c1ccn([C@@H]2O[C@H](CO)[C@@H](O)[C@H]2O)c(=O)[nH]1 [uridine],Decrease of t-PA site occupancy at 500 µM,"[1]; 60-mm dishes, 37° C.",~2%
ferric citrate,Increase of t-PA site occupancy,"[1]; 10-100 μM ferric citrate, 60-mm dishes, 37° C., days 4-6 (FIG. 11)",up to 4%
"t-PA: human tissue-type plasminogen activator, recombinant, produced in CHO cells; mixture of Type I and Type II glycoforms",Kd of binding to fibrin,fibrin,in the μM range
